Entries after “also recorded” stand apart in the source; their conditions may differ.
Columns and labels:
chorioallantoic membrane [1] = assay: Chorioallantoic membrane (CAM) angiogenesis assay; format: in vivo, chicken; conditions: 1 µM in 0.5% DMSO, applied daily for 72 h
Experimental: The potential effects of compounds 6 and 7 on the angiogenesis process were investigated using the chorioallantoic membrane (CAM) assay which uses fertilized chicken eggs, incubated at 37 °C, under controlled humidity. On the third day of incubation (embryonic day 3 of development, EDD 3), a small opening was made at one end of the eggs and 5–6 mL of albumen was removed, thus facilitating the separation of the chorioallantoic membrane. On EDD 4, a window was cut on the upper side of the egg and subsequently resealed, returning the specimens to the incubator. On EDD 7 (0 h), 10 µL of each test solution was administered inside a plastic ring previously applied on the intensely vascularized surface of the CAM [75, 76]. […] All samples were applied daily in the same volume for 72 h. For each analyzed sample, 5 eggs were used, and all samples were applied in triplicate. Macroscopic evaluation was daily performed in ovo by means of stereomicroscopy (ZEISS SteREO Discovery.V8, Göttingen, Germany) and all images were registered and processed by Axiocam 105 color, AxioVision SE64. Rel. 4.9.1 Software, (ZEISS Göttingen, Germany), ImageJ (ImageJ Version 1.50e, https://imagej.nih.gov/ij/index.html, accessed on 12 May 2021) and GIMP software (GIMP v 2.8, https://www.gimp.org/, accessed on 12 May 2021).

chorioallantoic membrane [2] = assay: HET-CAM irritation assay; conditions: for Irritation Score: 5 min
Source text: HET-CAM assay was used in order to assess the toxicity of compounds 6 and 7 (Figure 16); the procedure is a low-cost, unique model in biomedical research that allows the testing of the irritation potency of chemical compounds while simultaneously avoiding in vivo experiments. […] The Luepke scale was used to establish the irritation score: 0–0.9 indicates non-irritant, 1–4.9 indicates weakly irritant, 5–8.9 indicates moderately irritant, and 9–21 means strongly irritant.
Compounds 6 and 7 were also evaluated in terms of biocompatibility on mucosal tissues by using the in vivo Hen’s Egg Chorioallantoic Membrane Test (HET-CAM assay). The assay assesses a potential irritant effect on the vascular plexus of the chorioallantoic membrane. The HET-CAM method was carried out following ICCVAM recommendations published in November 2016 in Appendix G and adapted to our laboratory conditions. Thus, 300 µL of control or test solution, respectively, was applied on CAM and the alterations induced at the CAM level were monitored by means of stereomicroscopy (Discovery 8 Stereomicroscope, Zeiss), registering significant images (Axio CAM 105 color, Zeiss), before the application and after 5 min contact with the samples. All images were processed using Zeiss ZEN software, Gimp 2.8 and ImageJ software. Negative control was represented by distilled water and solvent control DMSO 0.5%, while the positive control by the sodium lauryl sulphate (SLS) 0.5% in distillate water. The test substances were tested in concentrations of 1 µM. The observation time of the produced reactions was 5 min (300 s) and the time, at which the occurrence of a particular reaction took place was recorded in seconds. Finally, the following reactions were monitored: hemorrhage—H (blood vessel bleeding), vascular lysis —L (disintegration of blood vessels), and coagulation —C (intra or extra- vascular protein denaturizing). A variety of analysis methods may be used to assess irritancy potential of test substances. One analysis method that has been used extensively used is an irritation score (IS) calculated according to the following formula: IS=5×301−SecH/300+[…]/300+9×301−SecC/300 where H = hemorrhage; L = vessel lysis; C = coagulation; Hemorrhage time (Sec H) = onset of hemorrhage reactions on CAM (in sec); Lysis time (Sec L) = onset of vessel lysis on CAM (in sec); Coagulation time (Sec C) = onset of coagulation formation on CAM (in sec). The formula comprises a factor indicating the impact of the observed effect on vascular damage, e.g., coagulation has the highest impact expressed by the multiplication factor 9. The IS values range on a scale between 0 and 21.

RPMI melanoma cells = assay: Cell morphology assessment; format: cell-based, human; conditions: 5 μM, 24 h
Experimental: In order to further investigate the biological effects of these compounds against three human melanoma cell lines, their effect on cell morphology was assessed.
In terms of the RPMI melanoma cell line (Figure 10), a decrease in the number of cells can be observed in direct proportion to the tested concentration; for both compounds, a proapoptotic change occurred in the cellular morphology.

SMILES	Effect on the normal angiogenic process (chorioallantoic membrane [1])	Irritation Score (chorioallantoic membrane [2]; chicken, in vivo, 1 µM)	Type of Effect (chorioallantoic membrane [2]; in vivo)	Effect on cell morphology (RPMI melanoma cells)	Irritation Score (chorioallantoic membrane [2]; HET-CAM, 300 µL, 1 µM test compounds, scale 0–21)	Type of Effect (chorioallantoic membrane [2]; HET-CAM, Luepke scale)
COC(=O)[C@]12CC[C@@H](C(=O)/C=C/c3cccnc3)[C@@H]1[C@H]1CC[C@@H]3[C@@]4(C)C/C(=C\c5cccnc5)C(=O)C(C)(C)[C@@H]4CC[C@@]3(C)[C@]1(C)CC2 [Compound 7, methyl 2,30-bis-(3-pyridinylidene)-3,20-dioxo-lup-28-oate]	did not interfere with the normal angiogenic process; also recorded: does not influence the angiogenic process	0	Non irritant			
C[C@H]1[C@@H]2[C@H]3CC[C@@H]4[C@@]5(C)C/C(=C\c6cccnc6)C(=O)C(C)(C)[C@@H]5CC[C@@]4(C)[C@]3(C)CC[C@]23CO[C@@]1(C)[C@@H](C(=O)/C=C/c1cccnc1)C3 [Compound 6, 3-Oxo-2-(3-pyridinylidene)-21-[3-(2E-pyridinyl)-prop-2-en-1-one]-20β,28-epoxy-18α,19βH-ursane]	only slightly affected angiogenesis			formation of vacuoles within the cell cytoplasm	0	Non irritant

Reference: article PMC8509773, “3-Pyridinylidene Derivatives of Chemically Modified Lupane and Ursane Triterpenes as Promising Anticancer Agents by Targeting Apoptosis” (International Journal of Molecular Sciences, 2021)
